The test system of one test is MCF-7. As to the kind of experiment: MTT colorimetric assay, MCF-7 cells. Format: cell-based. The conditions noted are these: Homo sapiens, MCF7, 72 h, 3 days of culturing, mean of six determinations, read-out: IC50 (μM) In Vitro Growth Inhibition. Here is the method:
(§1) The overall growth of human cancer cell lines was determined by means of the calorimetric MTT (3-[4,5-dimethylthiazol-2-yl]-diphenyl tetrazolium bromide; Sigma) assay, as detailed previously.

A further test deals with DU-145. As to the kind of experiment: Senescence-associated β-galactosidase staining, DU-145. The format is cell-based, human. The settings on record: 10 μM, 72 hours. The text has this:
Features typical of senescence have been induced by the compound of example 2 in human DU-145 prostate cancer cells. A senescent cell is known to typically show morphological changes, such as a flattened cytoplasm and increased granularity. The induction of senescence-associated β-galactosidase activity is a specific event occurring in cells undergoing senescence, a feature that was observed once more in the current study (according to the protocol found in Dimri et al., A biomarker that identifies senescent human cells in culture and in aging skin in vivo, Proc Natl Acad Sci USA. (1995) 92(20):9363-7), as evidenced in FIG. 4. Moderate doses (nM range) of doxorubicin (ADR) are known to induce senescence in wild-type human cancer cells. We therefore used doxorubicin as a positive control in our experiment.
After the indicated treatments, cells were washed in PBS, fixed for 3 to 5 minutes (at room temperature) in 2% formaldehyde/0.2% glutaraldehyde, washed and incubated at 37° C. […] 1995; 92:9363-9367.], after fixing and staining with X-Gal, the number of cells positive for the SA-β-Gal activity (intense blue staining) was then counted independently by two different individuals (on 400 cells/plate). […]
Human PC-3 and DU-145 prostate cancer cells cultured in 0 or 10 μM UNBS5162 or 20 nM Adriamycin for 72 hours were evaluated by SA-β-Gal staining. […]

The next test concerns Mk-CFC. As to the kind of experiment: HALO hematotoxicity assay, mouse Mk-CFC. The format is cell-based. The conditions noted are these: 5 days culture, iATP. The method, then: (§2) Investigation of the hematotoxic potential of UNBS5162 was undertaken by HemoGenix (Colorado Springs, Colo.). The effects of UNBS5162 on stem and progenitor cell populations from murine and human bone marrow were assessed using HALO (Hematopoietic/Hematotoxicity Assay through Luminescence Output) technology. Stem and hematopoietic progenitor cell populations were isolated from mouse and human bone marrow samples, plated at a concentration of 1.0×10^4 cells/well and cultured for 5 and 7 days, respectively, in the presence of growth factors and increasing concentrations of UNBS5162 ranging from 0.5 nM to 50 μM. The proliferative or growth potential of cell populations was determined from intracellular ATP (iATP) concentrations and a luciferin/luciferase bioluminescence signal detection system. All samples were assayed in eight replicates. The results are presented as estimated inhibitory concentration (IC) values.

The test system of a further test is HCT-15. The test is described as follows: MTT colorimetric assay, HCT-15 cells. The format is cell-based. The conditions noted are these: Homo sapiens, 72 h, 3 days of culturing, mean of six determinations, read-out: IC50 (μM) In Vitro Growth Inhibition. Here is the method: as §1
Test [1] has as its system nine human cancer cell lines. The test is described as follows: MTT colorimetric assay, mean of nine cell lines. Format: cell-based. The settings on record: mean over nine human cancer cell lines, read-out: mean antiproliferative activity IC50. The method, then:
as §1
UNBS3157 and UNBS5162 display weak antiproliferative activity in vitro.

A further test deals with BFU-E. The test is described as follows: HALO hematotoxicity assay, human BFU-E. The format is cell-based. The conditions noted are these: 7 days culture, iATP. The method, then:
as §2

A further test concerns Hs683 or U373 cells. As to the kind of experiment: Apoptosis by Annexin V-FITC flow cytometry, glioma cells. Format: cell-based, human. The settings on record: 10 μM for 72 h. Here is the method:
UNBS5162-induced apoptotic effects as evaluated by flow cytometry with Annexin V-FITC staining of Hs683 or U373 cells either left untreated (0 μM) or treated with 1 and 10 μM UNBS5162 for 72 h, either as a single treatment (gray bars) or as repeated (“chronic”; black bars) treatment (i.e. 1 μM or 10 μM each day for five days, “5×1”). The data are presented as means+SEM. “*” means that all GBM cells died before the end of the experiment.

The test system of the next test is CFC-GEMM. As to the kind of experiment: HALO hematotoxicity assay, mouse CFC-GEMM. The format is cell-based. The conditions noted are these: 5 days culture, iATP. Here is the method: as §2
A further test relates to OE21 xenograft. As to the kind of experiment: s.c. metastatic OE21 xenograft nude mice model. The format is in vivo. The settings on record: UNBS5162 10 mg/kg i.v. with cisplatin 5 mg/kg i.p. Here is the method:
To enable the achievement of pertinent in vivo studies, a highly metastatic s.c. model was developed by grafting OE21 cells subcutaneously into nude mice. […] In line with this, an experiment combining cisplatin to UNBS5162 was performed.
The treatment protocol included following conditions: • UNBS5162: N-{2-[2-(dimethylamino)ethyl]-1,3-dioxo-2,3-dihydro-1H-benzo[de]isoquinolin-5-yl}urea
Dose (mg/kg): 10 mg/kg (1.35 eq lactic acid) Dose volume: 200 μL/mouse Schedule: 3 injection(s) per week; 5 weeks (3i×5w)
Dose (mg/kg): 5 mg/kg (saline) Dose volume: 200 μL/mouse Schedule: 1 injection per week; 5 weeks (1×5)
Cisplatine (1×5)×5 mg/kg i.p.=>group 1 UNBS5162 (3×5)×10 mg/kg i.v.=>group 3 Cisplatine (1×3)×5 mg/kg i.p.=>1 w without treatment=>UNBS5162 (3×5)× […] i.v.=>group 4

In the next test the test system is Rb, pRb. The test is described as follows: Western blot of Rb and p-Rb, DU-145. The format is cell-based, human. The settings on record: 10 μM.

The source of these data is patent US20090186915A1, “Compositions and methods for treatment of glioblastoma, gliosarcoma, NSCLC, and head and neck cancer” (Unibioscreen S. A., priority 2006, published 2009).

Structures are written as SMILES. pIC50: −log10 of the molar value.

Consider `CN(C)CCN1C(=O)c2cccc3cc(NC(N)=O)cc(c23)C1=O` [UNBS5162, N-{2-[2-(dimethylamino)ethyl]-1,3-dioxo-2,3-dihydro-1H-benzo[de]isoquinolin-5-yl}urea], for which the half-maximal inhibitory concentration (IC50) in the test with MCF-7 stood at 46.5 µM; with HCT-15, 28.8 µM. The “senescence-associated β-galactosidase expression” value with DU-145 is given as “induced marked expression of SA-β-Gal”; in the test with DU-145 (listed as example 2), “induced a similar percentage of senescence-associated β-galactosidase positive staining as 20 nM doxorubicin”. Moreover, the pIC50 in the test with Mk-CFC (120 h) is 5.23; in [1] it was 4.75; with BFU-E (168 h), 5.44; in the test on CFC-GEMM (120 h), 5.21. Also, the IC90 came out at 9.61 µM in the test on Mk-CFC (120 h), 17.6 µM in the test on BFU-E (168 h) and 8.96 µM in the test on CFC-GEMM (120 h). The concentration for an effect of 75% (IC75) with Mk-CFC stood at 7.53 µM; with BFU-E it was 8.16 µM; in the test with CFC-GEMM, 7.48 µM. Moreover, the “apoptotic events (Annexin V-FITC)” value with Hs683 or U373 cells is on record as “induces moderate apoptotic events”. For the same compound, the “anti-tumor effect in combination with cisplatin (tumor size)” value with OE21 xenograft is given as “enhanced the activity of cisplatin”. The Rb protein expression result in the test on Rb, pRb was “a decrease but not the complete disappearance of Rb protein and E2F1 expression”.
